Assay results: publication doi:10.1101/2025.06.22.660908v1 (biorxiv, 2025)

What was measured:
Recombinant human TREM2 = target: T1, Recombinant human TREM2 (Homo sapiens, UniProt Q9NZC2); test: microscale thermophoresis; type: binding
T1 sequence (Q9NZC2 19-174 limits assumed): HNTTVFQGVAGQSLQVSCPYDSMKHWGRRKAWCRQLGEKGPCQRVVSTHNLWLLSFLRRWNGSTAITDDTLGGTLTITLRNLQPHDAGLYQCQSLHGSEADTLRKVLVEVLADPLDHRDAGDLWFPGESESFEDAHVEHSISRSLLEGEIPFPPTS

hERG = hERG (Homo sapiens, UniProt Q12809, species not given); test: hERG inhibition; type: cell-based
hERG, sequence (Q12809 whole entry): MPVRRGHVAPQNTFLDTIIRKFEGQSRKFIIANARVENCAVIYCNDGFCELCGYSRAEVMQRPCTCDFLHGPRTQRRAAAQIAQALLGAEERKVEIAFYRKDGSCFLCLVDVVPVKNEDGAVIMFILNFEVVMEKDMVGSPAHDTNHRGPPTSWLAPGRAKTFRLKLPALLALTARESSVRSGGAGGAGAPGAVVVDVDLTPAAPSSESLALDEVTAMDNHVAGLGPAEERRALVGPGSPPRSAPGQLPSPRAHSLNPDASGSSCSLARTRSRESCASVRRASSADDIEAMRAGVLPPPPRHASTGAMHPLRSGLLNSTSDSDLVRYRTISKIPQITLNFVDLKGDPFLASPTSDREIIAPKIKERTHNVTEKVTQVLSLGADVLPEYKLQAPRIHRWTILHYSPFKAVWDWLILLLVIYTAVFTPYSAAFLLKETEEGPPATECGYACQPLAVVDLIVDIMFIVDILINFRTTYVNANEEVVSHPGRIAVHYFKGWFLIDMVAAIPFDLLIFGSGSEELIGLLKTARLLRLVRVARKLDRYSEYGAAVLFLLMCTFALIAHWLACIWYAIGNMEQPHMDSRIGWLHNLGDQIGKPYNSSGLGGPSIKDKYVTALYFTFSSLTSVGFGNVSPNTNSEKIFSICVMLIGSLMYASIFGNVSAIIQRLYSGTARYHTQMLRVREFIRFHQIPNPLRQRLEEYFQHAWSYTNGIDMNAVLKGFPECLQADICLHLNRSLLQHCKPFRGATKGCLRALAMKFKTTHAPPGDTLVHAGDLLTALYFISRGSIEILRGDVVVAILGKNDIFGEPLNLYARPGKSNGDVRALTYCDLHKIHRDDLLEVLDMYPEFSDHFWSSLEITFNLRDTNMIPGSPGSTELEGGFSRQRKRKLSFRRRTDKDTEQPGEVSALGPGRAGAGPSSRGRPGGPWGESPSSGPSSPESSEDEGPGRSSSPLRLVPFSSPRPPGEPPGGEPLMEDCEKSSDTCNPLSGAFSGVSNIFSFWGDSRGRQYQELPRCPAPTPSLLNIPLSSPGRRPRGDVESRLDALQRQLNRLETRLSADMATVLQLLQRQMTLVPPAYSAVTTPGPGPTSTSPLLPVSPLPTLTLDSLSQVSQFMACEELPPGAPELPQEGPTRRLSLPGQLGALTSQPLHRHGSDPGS

SMILES | Kd (Recombinant human TREM2) [µM] | IC50 (hERG) [µM]
Cc1nc2cc(C3=CC(c4cnn(C)c4)OCC3)nc(-c3ccc(Cl)cc3F)c2nc1C (stereo not drawn) [C1] | 71.4 ± 4.06 | > 100
Cc1nc2cc([C@H]3CCO[C@@H](c4cnn(C)c4)C3)nc(-c3ccc(Cl)cc3F)c2nc1C [VG-3927] |  | > 100
